Values joined by “and” are separate entries in the source; they are usually repeats but may differ in a detail not shown here. Identical values can stand only once. Like-named read-outs stand apart in the source and are kept apart here.
Tests used:
[1] = target: T1, DRD2 F1103.28A (Homo sapiens, UniProt P14416, F110A); assay: β-arrestin2 recruitment (Tango), mutant; assay type: cell-based; design: expressed in transfected cells; host or cells: HEK293T (ATCC CRL-11268)
[2] = target: T2, DRD4 (D4.4 variant) wild-type (Homo sapiens, UniProt P21917); assay: Radioligand competition binding, [3H]-N-methylspiperone; details: DRD4; [3H]-methylspiperone (0.8-1.0 nM); read-out: Ki
T2 sequence (P21917 1-419): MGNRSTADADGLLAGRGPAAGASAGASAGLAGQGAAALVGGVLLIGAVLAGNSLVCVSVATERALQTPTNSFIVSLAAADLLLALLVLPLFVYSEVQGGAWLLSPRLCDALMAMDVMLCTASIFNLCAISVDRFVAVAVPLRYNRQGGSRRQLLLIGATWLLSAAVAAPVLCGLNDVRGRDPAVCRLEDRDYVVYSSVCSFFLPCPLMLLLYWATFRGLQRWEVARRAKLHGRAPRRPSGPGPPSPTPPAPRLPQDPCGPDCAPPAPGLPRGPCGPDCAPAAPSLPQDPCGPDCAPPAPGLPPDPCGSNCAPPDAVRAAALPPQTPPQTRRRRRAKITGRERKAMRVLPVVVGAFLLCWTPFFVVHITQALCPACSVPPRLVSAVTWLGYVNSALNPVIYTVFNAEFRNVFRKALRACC

[3] = target: T3, DRD2 F1103.28L (Homo sapiens, UniProt P14416, F110L); assay: β-arrestin2 recruitment (Tango), mutant; assay type: cell-based
T3 construct: expressed in transfected cells; host or cells: HEK293T (ATCC CRL-11268)

[4] = target: T4, DRD2 (D2 long receptor) (Homo sapiens, UniProt P14416); assay: β-arrestin2 recruitment (Tango), HTLA cells; assay type: cell-based
[5] = target: DRD2 (D2 long receptor) wild-type (Homo sapiens, UniProt P14416); assay: Radioligand competition binding, [3H]-N-methylspiperone, HEK293T membranes
[6] = target: DRD3 (Homo sapiens, UniProt P35462); assay: β-arrestin2 recruitment (Tango); assay type: cell-based; details: DRD3; Tango; read-out: EC50 ± SEM
[7] = target: T5, DRD4 (D4.4 variant) (Homo sapiens, UniProt P21917); assay: Gαi/o-mediated cAMP inhibition (GloSensor); assay type: cell-based; details: DRD4; agonist, cAMP inhibition; read-out: EC50 ± SEM
T5 sequence (P21917 1-419): T2 sequence (P21917 1-419)

[8] = target: T3, DRD2 F1103.28L; assay: Gαi/o-mediated cAMP inhibition (GloSensor), mutant; assay type: cell-based; details: DRD2 F1103.28L (b138 head prints DRD2 F1063.28L)
[9] = target: T1, DRD2 F1103.28A; assay type: binding; design: expressed in transfected cells; host or cells: HEK293T (ATCC CRL-11268)
[10] = target: DRD3 wild-type (Homo sapiens, UniProt P35462); assay: Radioligand competition binding, [3H]-N-methylspiperone
[11] = target: T1, DRD2 F1103.28A; assay: Gαi/o-mediated cAMP inhibition (GloSensor), mutant; assay type: cell-based; design: expressed in transfected cells; host or cells: HEK293T (ATCC CRL-11268)
[12] = target: T6, DRD3 F1063.28A (Homo sapiens, UniProt P35462, F106A); assay: biochemical; assay type: binding
[13] = target: T5, DRD4 (D4.4 variant); assay: β-arrestin2 recruitment (Tango); assay type: cell-based; details: DRD4; Tango; read-out: EC50 ± SEM
[14] = target: T6, DRD3 F1063.28A; assay: cell-based; assay type: cell-based; details: DRD3 F1063.28A; Tango; read-out: EC50 ± SEM
[15] = target: T4, DRD2 (D2 long receptor); assay: Gαi/o-mediated cAMP inhibition (GloSensor split-luciferase cAMP reporter), HEK293T; assay type: cell-based; details: for response, Fig_S11d dose-response source data: replicate values;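 as to all read-outs here: compounds applied 15 min at room temperature, then luciferin plus 400 nM isoproterenol to raise cAMP through endogenous β2-adrenergic receptors, luminescence read 15 min later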

T4 sequence (P14416 whole entry): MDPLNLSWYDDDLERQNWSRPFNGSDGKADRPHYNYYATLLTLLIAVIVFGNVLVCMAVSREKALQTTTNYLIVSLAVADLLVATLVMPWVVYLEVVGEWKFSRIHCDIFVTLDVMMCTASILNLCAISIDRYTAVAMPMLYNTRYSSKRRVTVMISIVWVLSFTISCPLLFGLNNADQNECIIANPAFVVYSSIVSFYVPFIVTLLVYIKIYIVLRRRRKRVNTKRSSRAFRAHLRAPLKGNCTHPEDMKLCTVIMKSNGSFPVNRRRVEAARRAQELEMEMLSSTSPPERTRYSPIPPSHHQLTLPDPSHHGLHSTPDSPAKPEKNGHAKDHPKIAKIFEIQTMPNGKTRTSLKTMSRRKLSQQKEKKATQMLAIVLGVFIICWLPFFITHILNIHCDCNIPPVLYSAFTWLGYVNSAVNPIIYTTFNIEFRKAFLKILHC
T6 sequence (P35462 whole entry F106A): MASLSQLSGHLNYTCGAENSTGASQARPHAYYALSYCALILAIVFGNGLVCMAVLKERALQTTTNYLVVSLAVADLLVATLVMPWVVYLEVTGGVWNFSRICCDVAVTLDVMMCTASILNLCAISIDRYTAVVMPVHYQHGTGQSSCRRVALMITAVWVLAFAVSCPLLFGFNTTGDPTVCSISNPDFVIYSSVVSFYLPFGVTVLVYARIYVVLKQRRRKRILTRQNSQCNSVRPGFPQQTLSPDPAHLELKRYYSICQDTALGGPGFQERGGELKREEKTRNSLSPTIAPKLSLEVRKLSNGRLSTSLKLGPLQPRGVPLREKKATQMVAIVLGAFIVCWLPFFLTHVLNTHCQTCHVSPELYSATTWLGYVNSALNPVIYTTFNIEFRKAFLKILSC
T1 sequence (P14416 whole entry F110A): as the sequence (P14416 whole entry) above, with F110A counted along it
DRD2 (D2 long receptor) wild-type, sequence (P14416 whole entry): as the sequence (P14416 whole entry) above
T3 sequence (P14416 whole entry F110L): as the sequence (P14416 whole entry) above, with F110L counted along it
DRD3 wild-type, sequence (P35462 whole entry): as the sequence (P35462 whole entry F106A) above, with A106F counted along it
DRD3, sequence (P35462 whole entry): as the sequence (P35462 whole entry F106A) above, with A106F counted along it

In the case of `CCOc1cccc2cc(C(C)NCC3(O)CCCC3)oc12.Cl` (racemic) [O4LE5], the EC50 [1] is reported as greater than 10 µM, the Ki [2] is reported as greater than 10 µM and the EC50 [3] is reported as greater than 10 µM. For the same molecule, the “response, Fig_S11e dose-response source data” value [4] was 4.195 and 4.191, the “Emax relative to quinpirole response” value ([4]; DRD2, Tango) was 69.77% and the EC50 ([4]; DRD2, β-arrestin2 recruitment (Tango), read-out: EC50 ± SEM) was 0.591 ± 0.16 µM. The “response, Fig_S11e dose-response source data” value ([4]; Fig_S11e, Log[Drug] -6.52, replicate values) was 29.7819, the “response, Fig_S11e dose-response source data” value ([4]; Fig_S11e, Log[Drug] -7, replicate values) was 14.8195 and 15.4716 and 11.9245 and 14.4902 and 10.6077 and 13.3375 and 15.5705 and 13.1474 and 10.3991 and the “response, Fig_S11e dose-response source data” value ([4]; Fig_S11e, Log[Drug] -7.52, replicate values) was 5.649 and 7.617 and 8.153 and 5.088 and 5.357 and 5.685 and 6.459 and 7.136 and 7.327. For the same molecule, the “response, Fig_S11e dose-response source data” value ([4]; Fig_S11e, Log[Drug] -8, replicate values) was 4.53 and 4.924 and 7.437 and 4.448 and 4.588 and 4.761 and 4.942 and 5.222 and 4.354, the “response, Fig_S11e dose-response source data” value ([4]; Fig_S11e, Log[Drug] -8.52, replicate values) was 5.418 and 3.578 and 5.097 and 4.558 and 4.204 and 3.944 and 4.259 and 4.448 and the “response, Fig_S11e dose-response source data” value ([4]; Fig_S11e, Log[Drug] -9, replicate values) was 5.551 and 4.294 and 3.766 and 4.187 and 3.973 and 4.022 and 3.996 and 4.409 and 5.115. For the same molecule, the “response, Fig_S11e dose-response source data” value ([4]; Fig_S11e, Log[Drug] -9.52, replicate values) was 3.774 and 3.895 and 3.825 and 3.992 and 4.187 and 3.4742 and 3.994 and 4.11, the “response, Fig_S11e dose-response source data” value ([4]; Fig_S11e, Log[Drug] -10, replicate values) was 3.543 and 4.048 and 4.417 and 4.083 and 4.005 and 3.8893 and 4.472 and 4.295 and 4.703 and the “response, Fig_S11e dose-response source data” value ([4]; Fig_S11e, Log[Drug] -10.52, replicate values) was 4.321 and 3.611 and 3.873 and 3.908 and 3.996 and 3.919 and 3.699 and 4.48 and 4.116. For the same molecule, the “response, Fig_S11e dose-response source data” value ([4]; Fig_S11e, Log[Drug] -11, replicate values) was 3.51 and 3.391 and 4.782 and 4.294 and 4.024 and 3.997 and 3.756 and 4.401 and 4.222, the “response, Fig_S11e dose-response source data” value ([4]; Fig_S11e, Log[Drug] -11.52, replicate values) was 3.707 and 4 and 3.724 and 4.053 and 3.84 and 3.862 and 4.291 and 4.0833 and 3.6644 and the “response, Fig_S11e dose-response source data” value ([4]; Fig_S11e, Log[Drug] -12, replicate values) was 4.3048 and 3.879 and 4.62 and 3.975 and 4.688 and 4.168 and 3.647 and 4.316 and 4.328. For the same molecule, the Ki ([5]; DRD2, [3H]-methylspiperone (0.8-1.0 nM), read-out: Ki) was 9.55 µM, the “pKi ± SEM” value ([5]; DRD2 wild-type) was 5.02±0.07 and the EC50 [6] was greater than 10 µM. For the same molecule, the EC50 [7] was greater than 10 µM, the EC50 [8] was greater than 10 µM and the “pKi ± SEM” value ([9]; DRD2 F1103.28A) was 6.03±0.14. The Ki ([9]; DRD2 F1103.28A, read-out: Ki) was 0.93 µM, the “affinity increase (binding enhanced), mutant vs wild type” value ([9]; DRD2 Phe110^3.28Ala vs wild-type DRD2) was 10.27 fold and the Ki ([10]; DRD3, [3H]-methylspiperone (0.8-1.0 nM), read-out: Ki) was 1.02 µM. For the same molecule, the “pKi ± SEM” value ([10]; DRD3 wild-type) was 5.99±0.02, the EC50 [11] was 0.05 ± 0.04 nM and the “Emax relative to quinpirole response” value [11] was 13.66%. The “pKi ± SEM” value ([12]; DRD3 F1063.28A) was 5.37±0.13, the Ki ([12]; DRD3 F1063.28A, read-out: Ki) was 4.27 µM and the “affinity decreased, mutant vs wild type” value ([12]; DRD3 Phe106^3.28Ala vs wild-type DRD3) was 4.19 fold. For the same molecule, the EC50 [13] was greater than 10 µM, the EC50 [14] was greater than 10 µM and the EC50 ([15]; DRD2, agonist, Gαi/o-mediated cAMP inhibition, read-out: EC50 ± SEM) was 0.0203 ± 0.00906 µM. The “Emax relative to quinpirole response” value ([15]; DRD2, cAMP inhibition) was 90.02%, the “response, Fig_S11d dose-response source data” value ([15]; Log[Drug] -6.52) was 89.8047 and the “response, Fig_S11d dose-response source data” value ([15]; Log[Drug] -7) was 65.0385 and 57.9248 and 60.2207 and 80.9341 and 74.6312 and 79.279 and 82.9188 and 82.7948 and 77.3857. The “response, Fig_S11d dose-response source data” value ([15]; Log[Drug] -7.52) was 39.5571 and 33.4973 and 24.3511 and 57.6284 and 63.6471 and 63.1957 and 71.0585 and 72.7209 and 64.8058, the “response, Fig_S11d dose-response source data” value ([15]; Log[Drug] -8) was 9.5215 and 11.2717 and 13.7182 and 48.383 and 49.6202 and 44.9055 and 35.7008 and 48.9506 and 59.4463 and the “response, Fig_S11d dose-response source data” value ([15]; Log[Drug] -8.52) was -3.6708 and -0.0387 and -1.4878 and 27.1503 and 28.8723 and 39.8732 and 29.7954 and 40.3159 and 28.6789. For the same molecule, the “response, Fig_S11d dose-response source data” value ([15]; Log[Drug] -9) was 6.661 and 7.056 and -0.9609 and 40.0738 and 31.9486 and 25.4952 and 24.1382 and 31.3586 and 28.8029, the “response, Fig_S11d dose-response source data” value ([15]; Log[Drug] -9.52) was 12.3068 and -0.3586 and -16.1104 and 30.2934 and 20.4294 and 33.0687 and 10.7891 and 20.7389 and 17.29 and the “response, Fig_S11d dose-response source data” value ([15]; Log[Drug] -10) was -16.468 and 1.297 and -13.024 and 16.0491 and 30.494 and 18.4566 and 11.0621 and 15.5283 and 8.9282. The “response, Fig_S11d dose-response source data” value ([15]; Log[Drug] -10.52) was -14.0967 and 4.779 and -14.8495 and 16.7012 and 24.0741 and 20.5632 and 2.204 and 13.0967 and 9.052, the “response, Fig_S11d dose-response source data” value ([15]; Log[Drug] -11) was -2.7111 and 12.7961 and -15.5834 and 17.8548 and 27.4178 and 14.9457 and -4.6938 and 9.499 and 12.5508 and the “response, Fig_S11d dose-response source data” value ([15]; Log[Drug] -11.52) was -7.9428 and 7.113 and -8.1498 and 19.6269 and 38.218 and 27.7856 and 20.6149 and 38.3557 and 9.623. The “response, Fig_S11d dose-response source data” value ([15]; Log[Drug] -12) was -24.8425 and -18.4063 and -14.0215 and 7.974 and -7.6244 and -4.264 and -3.478 and -21.2934 and -10.4999.
